Experimental data: US12358948B2, “Neurotensinergic agonists and methods of using same preventing or treating pain” (priority 2019, dated 2025)

System: ileum
Assay: Ileum relaxation assay ex vivo
Set-up: species or system rat
Conditions: 10^−11 to 10^−6 M, after contraction with carbachol
Experimental: The functional ileum bioassay was carried out as described in detail elsewhere. (Van der Poorten, O., Van Den Hauwe, R., Eiselt, E., Betti, C., Guillemyn, K., Chung, N. N., Hall, F., Bihel, F., Schiller, P. W., Tourwé, D., Sarret, P., Gendron, L, . . . Ballet, S. (2017). X-Space Screening of Dermorphin-Based Tetrapeptides through Use of Constrained Arylazepinone and Quinolinone Scaffolds. ACS medicinal chemistry letters, 8(11), 1177-1182) Briefly, rats were euthanized, and 2 cm ileum segments were dissected out before removal of extraneous fat and connective tissue.
The ileum was then mounted under 0.5-g tension in a 10 mL organ bath containing warmed (37° C.) and oxygenated (95% O2, 5% CO2) Krebs solution (6.9 g/L NaCl, 0.145 g/L MgSO4, 2.1 g/L NaHCO3, 0.35 g/L KCl, 0.165 g/L KH2PO4, 1.98 g/L dextrose and 0.28 g/L CaCl2)). […] Contractions of the muscle were recorded via an isometric force transducer (159901A, Radnoti, Monrovia, CA, USA). […]
Each concentration of the compounds tested were followed by 2×15-min washout periods in Krebs solution to allow full relaxation. Dose-response curves were obtained with NT (8-13) (10^−11 to 10^−6) as standard for each ileum and for compound 34(10^−11 to 10^−5) and IC50 values were determined. […]
Data are expressed as mean±standard errors of the mean (SEM). […]

Compound: CC[C@H](C)[C@H](NC(=O)[C@H](Cc1ccc(O)cc1)NC(=O)[C@@H]1CCCN1C(=O)[C@H](CCCNC(=N)N)NC(=O)[C@@H](N)CCCNC(=N)N)C(=O)N[C@@H](CC(C)C)C(=O)O [NT(8-13), Neurotensin 8-13, reference compound]
- IC50: 3.9 nM
